Conditions: Liquid, Vibrating tube method

CCOC(F)(C(F)(F)C(F)(F)C(F)(F)F)C(F)(C(F)(F)F)C(F)(F)F (centres undefined) [2-trifluoromethyl-3-ethoxydodecafluorohexane]
Conditions | mass density [kg/m3]
283.48 K, 60000 kPa | 1751.01
283.49 K, 3000 kPa | 1658.1
283.49 K, 50000 kPa | 1737.96
283.49 K, 70000 kPa | 1762.23
283.5 K, 5000 kPa | 1662.38
283.5 K, 10000 kPa | 1672.98
283.5 K, 30000 kPa | 1709.09
283.5 K, 40000 kPa | 1724.44
283.5 K, 80000 kPa | 1773.1
283.5 K, 90000 kPa | 1783.39
283.51 K, 100 kPa | 1652.11
283.51 K, 1000 kPa | 1653.72
283.51 K, 15000 kPa | 1682.71
283.51 K, 20000 kPa | 1691.9
283.51 K, 25000 kPa | 1701.13
283.52 K, 100000 kPa | 1793.19
293.04 K, 40000 kPa | 1708.75
293.04 K, 50000 kPa | 1723.04
293.04 K, 70000 kPa | 1748.33
293.04 K, 90000 kPa | 1770.03
293.04 K, 100000 kPa | 1780.11
293.05 K, 100 kPa | 1631.62
293.05 K, 1000 kPa | 1633.93
293.05 K, 3000 kPa | 1638.93
293.05 K, 5000 kPa | 1643.69
293.05 K, 10000 kPa | 1654.94
293.05 K, 15000 kPa | 1665.37
293.05 K, 20000 kPa | 1675.05
293.05 K, 25000 kPa | 1684.16
293.05 K, 30000 kPa | 1692.79
293.05 K, 60000 kPa | 1736.39
293.05 K, 80000 kPa | 1759.65
302.88 K, 100 kPa | 1610.41
302.88 K, 1000 kPa | 1612.92
302.88 K, 3000 kPa | 1618.33
302.88 K, 10000 kPa | 1635.7
302.88 K, 60000 kPa | 1721.46
302.89 K, 5000 kPa | 1623.52
302.89 K, 15000 kPa | 1646.85
302.89 K, 20000 kPa | 1657.18
302.89 K, 25000 kPa | 1666.89
302.89 K, 30000 kPa | 1676.01
302.89 K, 40000 kPa | 1692.64
302.89 K, 50000 kPa | 1707.74
302.89 K, 70000 kPa | 1733.98
302.89 K, 80000 kPa | 1745.75
302.89 K, 90000 kPa | 1756.68
302.89 K, 100000 kPa | 1767.03
313.15 K, 90000 kPa | 1744.34
313.16 K, 3000 kPa | 1598.14
313.16 K, 15000 kPa | 1628.94
313.16 K, 20000 kPa | 1639.8
313.16 K, 30000 kPa | 1659.7
313.16 K, 40000 kPa | 1677.38
313.16 K, 60000 kPa | 1707.63
313.17 K, 100 kPa | 1589.56
313.17 K, 1000 kPa | 1592.21
313.17 K, 10000 kPa | 1616.81
313.17 K, 25000 kPa | 1650.1
313.17 K, 50000 kPa | 1693.17
313.17 K, 70010 kPa | 1720.7
313.17 K, 80000 kPa | 1733
313.17 K, 100000 kPa | 1755.06
313.18 K, 5000 kPa | 1603.66
323.04 K, 5000 kPa | 1585.04
323.04 K, 10000 kPa | 1599.21
323.04 K, 15000 kPa | 1612.03
323.04 K, 20000 kPa | 1623.79
323.04 K, 25000 kPa | 1634.67
323.04 K, 30000 kPa | 1644.88
323.04 K, 40000 kPa | 1663.35
323.04 K, 50000 kPa | 1679.91
323.04 K, 60000 kPa | 1694.93
323.04 K, 70000 kPa | 1708.52
323.04 K, 80000 kPa | 1721.13
323.04 K, 90000 kPa | 1732.9
323.04 K, 100000 kPa | 1743.96
323.05 K, 1000 kPa | 1572.54
323.05 K, 3000 kPa | 1578.97
323.06 K, 100 kPa | 1569.59
332.94 K, 15000 kPa | 1591.88
332.94 K, 20000 kPa | 1604.4
332.94 K, 25000 kPa | 1615.92
332.94 K, 30000 kPa | 1626.63
332.94 K, 40000 kPa | 1646.05
332.94 K, 50000 kPa | 1663.31
332.94 K, 60000 kPa | 1678.97
332.94 K, 70000 kPa | 1693.19
332.94 K, 80000 kPa | 1706.27
332.94 K, 90000 kPa | 1718.48
332.94 K, 100000 kPa | 1729.78
332.95 K, 3000 kPa | 1556.26
332.95 K, 5000 kPa | 1562.89
332.95 K, 10000 kPa | 1578.13
332.96 K, 1000 kPa | 1549.29
332.97 K, 100 kPa | 1546.01
342.55 K, 100 kPa | 1525.56
342.56 K, 1000 kPa | 1529.11
342.56 K, 3000 kPa | 1536.69
342.56 K, 5000 kPa | 1543.86
342.56 K, 10000 kPa | 1560.31
342.57 K, 15000 kPa | 1574.95
342.57 K, 20000 kPa | 1588.2
342.57 K, 25000 kPa | 1600.4
342.57 K, 30000 kPa | 1611.69
342.57 K, 40000 kPa | 1632.02
342.57 K, 50000 kPa | 1650.06
342.57 K, 60000 kPa | 1666.29
342.57 K, 70000 kPa | 1680.92
342.57 K, 80000 kPa | 1694.39
342.57 K, 90000 kPa | 1706.96
342.57 K, 100000 kPa | 1718.69
352.56 K, 100 kPa | 1503.72
352.56 K, 1000 kPa | 1507.64
352.57 K, 3000 kPa | 1515.99
352.57 K, 5000 kPa | 1523.8
352.57 K, 10000 kPa | 1541.62
352.57 K, 15000 kPa | 1557.31
352.57 K, 20000 kPa | 1571.45
352.57 K, 25000 kPa | 1584.35
352.57 K, 30000 kPa | 1596.28
352.57 K, 40000 kPa | 1617.61
352.57 K, 50000 kPa | 1636.45
352.57 K, 70000 kPa | 1668.54
352.58 K, 60000 kPa | 1653.3
352.58 K, 80000 kPa | 1682.53
352.58 K, 90000 kPa | 1695.44
352.58 K, 100000 kPa | 1707.52
362.59 K, 5000 kPa | 1503.25
362.59 K, 10000 kPa | 1522.52
362.59 K, 15000 kPa | 1539.4
362.6 K, 100 kPa | 1481.19
362.6 K, 1000 kPa | 1485.52
362.6 K, 3000 kPa | 1494.68
362.6 K, 20000 kPa | 1554.46
362.6 K, 25000 kPa | 1568.1
362.6 K, 30000 kPa | 1580.67
362.6 K, 40000 kPa | 1603.06
362.6 K, 50000 kPa | 1622.7
362.6 K, 60000 kPa | 1640.27
362.6 K, 70000 kPa | 1656.03
362.6 K, 80000 kPa | 1670.49
362.6 K, 90000 kPa | 1683.83
362.6 K, 100000 kPa | 1696.22
